Patent publication US20240376163A1, “PEPTIDE FOR INHIBITING CALCINEURIN AND USE THEREOF” (Seoul National University R&DB Foundation, priority 2023, published 2024)

System: Jurkat T cells
Assay: mRNA sequencing of activated Jurkat T cells
Format: cell-based, human
Details: Jurkat T cells, P + I

PEITVTPPTP [CABIN1-L-1-2]
ABTB2 FPKM: 6.382 FPKM | ACAP1 FPKM: 26.535 FPKM | ACSF3 FPKM: 15.621 FPKM | ADA FPKM: 73.254 FPKM | ADAMTS17 FPKM: 0.882 FPKM | ADCYAP1 FPKM: 3.219 FPKM | ADORA2A FPKM: 1.475 FPKM | AFF2 FPKM: 3.175 FPKM | AGK FPKM: 14.306 FPKM | ALDH1A2 FPKM: 6.66 FPKM | ALOX5AP FPKM: 39.735 FPKM | ANKEF1 FPKM: 2.575 FPKM | ANO8 FPKM: 2.721 FPKM | ANTXR2 FPKM: 55.18 FPKM | APH1B FPKM: 4.206 FPKM | APOBEC3B-AS1 FPKM: 20.386 FPKM | APOBEC3F FPKM: 7.066 FPKM | APOBEC3G FPKM: 9.231 FPKM | APOL1 FPKM: 4.498 FPKM | ARHGAP4 FPKM: 16.216 FPKM | ARHGAP25 FPKM: 2.157 FPKM | ARHGAP31 FPKM: 11.177 FPKM | ARHGEF3 FPKM: 8.674 FPKM | ARPP21 FPKM: 0.7 FPKM | ASB13 FPKM: 2.543 FPKM | ASNS FPKM: 19.026 FPKM | ATHL1 FPKM: 6.014 FPKM | ATP2A3 FPKM: 36.996 FPKM | ATP6V0A4 FPKM: 18.558 FPKM | ATP6V1B2 FPKM: 60.661 FPKM | ATPAF1 FPKM: 10.283 FPKM | AVPR2 FPKM: 1.492 FPKM | B2M FPKM: 1302.512 FPKM | BAHCC1 FPKM: 0.873 FPKM | BCL2A1 FPKM: 51.928 FPKM | BCL2L1 FPKM: 41.852 FPKM | BCL3 FPKM: 17.15 FPKM | BCL6 FPKM: 15.55 FPKM | BCL7A FPKM: 12.277 FPKM | BCL11B FPKM: 3.353 FPKM | BEND6 FPKM: 1.409 FPKM | BIN1 FPKM: 1.968 FPKM | BIRC3 FPKM: 58.303 FPKM | C10orf55 FPKM: 15.779 FPKM | C11orf74 FPKM: 0.392 FPKM | C21orf58 FPKM: 6.073 FPKM | CABP1 FPKM: 1.689 FPKM | CAMK2D FPKM: 6.138 FPKM | CARHSP1 FPKM: 14.562 FPKM | CBFA2T3 FPKM: 11.821 FPKM | CBLB FPKM: 7.757 FPKM | CBS FPKM: 3.916 FPKM | CBX2 FPKM: 2.454 FPKM | CCDC15 FPKM: 2.926 FPKM | CCL3 FPKM: 0.502 FPKM | CCL3L3 FPKM: 0.079 FPKM | CCL20 FPKM: 1.279 FPKM | CCND3 FPKM: 25.396 FPKM | CCNE2 FPKM: 5.206 FPKM | CD1B FPKM: 4.733 FPKM | CD1E FPKM: 3.521 FPKM | CD70 FPKM: 7.606 FPKM | CD82 FPKM: 222.109 FPKM | CD97 FPKM: 21.496 FPKM | CD200 FPKM: 0.094 FPKM | CD274 FPKM: 15.92 FPKM | CDKN1A FPKM: 62.513 FPKM | CDKN2D FPKM: 16.801 FPKM | CECR1 FPKM: 3.984 FPKM | CENPM FPKM: 14.415 FPKM | CEP70 FPKM: 12.745 FPKM | CERKL FPKM: 10.348 FPKM | CFLAR FPKM: 3.022 FPKM | CHEK2 FPKM: 7.751 FPKM | CHPF2 FPKM: 34.939 FPKM | CHPF FPKM: 12.714 FPKM | CHRNA3 FPKM: 3.499 FPKM | CHST12 FPKM: 12.639 FPKM | CNN2 FPKM: 18.455 FPKM | COL27A1 FPKM: 5.729 FPKM | CPD FPKM: 26.602 FPKM | CREB3L2 FPKM: 5.857 FPKM | CREB5 FPKM: 1.966 FPKM | CSF1 FPKM: 2.594 FPKM | CSF2 FPKM: 0.314 FPKM | CXCL8 FPKM: 3.327 FPKM | CXCL11 FPKM: 3.793 FPKM | CXCR4 FPKM: 34.014 FPKM | CYTH1 FPKM: 30.15 FPKM | DBP FPKM: 1.773 FPKM | DCBLD2 FPKM: 15.588 FPKM | DENND5A FPKM: 37.896 FPKM | DNAJB5 FPKM: 19.35 FPKM | DSTYK FPKM: 3.595 FPKM | DTL FPKM: 5.275 FPKM | DTX1 FPKM: 3.245 FPKM | DUSP6 FPKM: 12.914 FPKM | DUSP10 FPKM: 12.142 FPKM | E2F7 FPKM: 4.018 FPKM | ECE1 FPKM: 59.384 FPKM | EFHD2 FPKM: 234.38 FPKM | EGR1 FPKM: 123.294 FPKM | EGR2 FPKM: 9 FPKM | EHBP1L1 FPKM: 5.023 FPKM | EMP1 FPKM: 4.589 FPKM | ETS1 FPKM: 38.627 FPKM | FADS2 FPKM: 48.612 FPKM | FAM64A FPKM: 6.008 FPKM | FAT1 FPKM: 11.964 FPKM | FBLN2 FPKM: 3.01 FPKM | FKBP5 FPKM: 7.791 FPKM | FLI1 FPKM: 10.752 FPKM | FOSL1 FPKM: 12.705 FPKM | FOSL2 FPKM: 2.362 FPKM | FXYD5 FPKM: 42.856 FPKM | FYN FPKM: 15.512 FPKM | GAD1 FPKM: 2.238 FPKM | GFOD1 FPKM: 6.312 FPKM | GFRA1 FPKM: 0.76 FPKM | GKAP1 FPKM: 2.927 FPKM | GLRB FPKM: 1.354 FPKM | GLRX FPKM: 21.013 FPKM | GNG4 FPKM: 7.415 FPKM | GPC2 FPKM: 4.85 FPKM | GPR17 FPKM: 0.181 FPKM | GPR68 FPKM: 11.224 FPKM | GSE1 FPKM: 14.556 FPKM | GTDC1 FPKM: 5.144 FPKM | GXYLT2 FPKM: 4.24 FPKM | GZMB FPKM: 909.046 FPKM | HCAR1 FPKM: 7.943 FPKM | HIVEP3 FPKM: 20.545 FPKM | HLA-A FPKM: 226.558 FPKM | HLA-B FPKM: 160.359 FPKM | HPGD FPKM: 3.392 FPKM | IFIT3 FPKM: 6.682 FPKM | IKZF2 FPKM: 8.132 FPKM | IL2 FPKM: 12.964 FPKM | IL4R FPKM: 12.536 FPKM | IL10RA FPKM: 3.208 FPKM | IL15 FPKM: 3.16 FPKM | IL15RA FPKM: 7.481 FPKM | IL21R FPKM: 5.255 FPKM | IL21R-AS1 FPKM: 3.991 FPKM | IL27RA FPKM: 10.764 FPKM | IQCJ-SCHIP1 FPKM: 1.234 FPKM | IQGAP2 FPKM: 3.477 FPKM | IRF1 FPKM: 152.425 FPKM | IRF2 FPKM: 34.829 FPKM | IRF4 FPKM: 2.092 FPKM | IRF7 FPKM: 21.372 FPKM | ITGA4 FPKM: 31.73 FPKM | ITGAL FPKM: 7.674 FPKM | ITK FPKM: 62.324 FPKM | JAK2 FPKM: 8.45 FPKM | KCNK1 FPKM: 13.139 FPKM | KIAA0101 FPKM: 16.766 FPKM | KIAA0247 FPKM: 8.83 FPKM | KIR3DX1 FPKM: 3.992 FPKM | KLF10 FPKM: 15.364 FPKM | KLF12 FPKM: 4.377 FPKM | KREMEN1 FPKM: 2.958 FPKM | LAIR1 FPKM: 7.19 FPKM | LDLRAD4 FPKM: 4.769 FPKM | LEF1-AS1 FPKM: 2.388 FPKM | LEF1 FPKM: 48.109 FPKM | LGMN FPKM: 1.976 FPKM | LIF FPKM: 0.231 FPKM | LIMS2 FPKM: 4.304 FPKM | LINC00659 FPKM: 9.828 FPKM | LINC01260 FPKM: 7.215 FPKM | LMNA FPKM: 2.786 FPKM | LMO1 FPKM: 0.954 FPKM | LOC653712 FPKM: 2.808 FPKM | LOC100506688 FPKM: 1.704 FPKM | LOC101926963 FPKM: 4.742 FPKM | LOC101927497 FPKM: 10.444 FPKM | LPAR6 FPKM: 4.344 FPKM | LRRC8C FPKM: 11.753 FPKM | LRRC20 FPKM: 2.839 FPKM | LTBP4 FPKM: 9.568 FPKM | LUCATI FPKM: 9.183 FPKM | MAFF FPKM: 16.464 FPKM | MAGEA4 FPKM: 3.775 FPKM | MAL FPKM: 2.026 FPKM | MAMLD1 FPKM: 9.949 FPKM | MAP3K7CL FPKM: 2.03 FPKM | MAST4 FPKM: 5.841 FPKM | MAZ FPKM: 99.474 FPKM | MCM2 FPKM: 23.634 FPKM | MCTP2 FPKM: 3.187 FPKM | METRN FPKM: 1.604 FPKM | MFAP4 FPKM: 0.663 FPKM | MGAT4A FPKM: 8.882 FPKM | MICAL2 FPKM: 1.84 FPKM | MIR22HG FPKM: 8.63 FPKM | MIR3652 FPKM: 567.901 FPKM | MIR6775 FPKM: 21.57 FPKM | MIR6821 FPKM: 25.116 FPKM
